# In PubChem BioAssay AID2060894 (Molecular Pharmacology Branch, DTP, NCI, 2025):
# Values joined by “and” are separate entries in the source; they are usually repeats but may differ in a detail not shown here. Equal entries are not always repeated.
# Tested on: K12877-001-R-J1-PDC complex spheroid viability
# Assay: Anticancer human tumor K12877-001-R-J1-PDC patient-derived lung adenocarcinoma cell line growth inhibition [RAS]
# Details: for viability, T/C: stronger effect = lower value
# Description: RAS pathway inhibitors in Combinations in Complex Spheroids
# A high-throughput screen of multi-cell type tumor spheroids was designed to identify active combinations of RAS pathway inhibitors and targeted small molecules. Complex spheroids include a stromal component modeled by human endothelial cells (HUVEC) and fibroblasts modeled by human mesenchymal stem cells (MSCs). The concentration ranges selected for each drug and investigational agent were based upon clinically achievable concentrations if the clinical Cmax of the agent was known.
# Compounds. The drugs and investigational agents: abemaciclib (NSC768073), cobimetinib (NSC768068), divarasib (GDC6063, NSC841802), docetaxel (NSC628503), GDC-1971 (RLY-1971, NSC841576), gemcitabine (NSC613327), inavolisib (NSC800729), ipatasertib (NSC767898), KB-0742 (NSC834161), MRTX-1133 (NSC836407), osimertinib (NSC779217), RMC-4630 (NSC839698), RMC-6236 (NSC851965), RMC-6291 (NSC852671), Ro-3306 (NSC812927), sapanisertib (NSC764658), SN-38 (NSC673596), staurosporine (NSC755774), SY5609 (NSC837396), and tovorafenib (DAY101, NSC766906), were obtained from the National Cancer Institute (NCI) Developmental Therapeutics Program Chemical Repository. The FDA-approved anticancer drug set is available from the NCI Developmental Therapeutics Program. […] The stock solutions were prepared in dimethyl sulfoxide (DMSO, Sigma-Aldrich, St. Louis, MO, cat. D2650) at 800-fold the tested concentration and stored at -70 degrees C prior to their use. All drugs and investigational agents were tested over a range starting from a high concentration at or near the clinical Cmax and decreasing in half-log increments. If the clinical Cmax for an agent had not been determined, the highest concentration tested was 10 microM.
# Cell Culture. All cells were maintained in an incubator at 37 degrees C and 5% CO2 with 95% humidity. The PDC lines were cultured according to standard operating procedures established by the NCI PDMR. All PDCs were thawed and cultured in Matrigel-coated flasks prepared with a working solution of 1X Ham's F-12 nutrient mix, without supplementation (Invitrogen, Waltham, MA, cat. 11765054), 100 U/mL penicillin-streptomycin (Invitrogen, cat. 15140122), and 2.5% Matrigel (Corning Inc., Corning, NY, cat. 354248) for the first three passages. The 362531-283-R-J2-PDC and 782815-120-R-J1-PDC lines were cultured in 6C/Colon 1B media, which includes advanced DMEM/F-12 (Thermo Fisher Scientific, cat. 12634028), 10 mM HEPES (Thermo Fisher Scientific, cat. 15630080), 1X GlutaMAX supplement (Thermo Fisher Scientific, cat. 35050061), 0.1 mg/mL primocin (InvivoGen, San Diego, CA, cat. ant-pm-2), 10% defined fetal bovine serum, heat inactivated (HyClone Laboratories Inc., Logan, UT, cat. SH30070.03HI), 50% L-WRN conditioned media (ATCC, cat. CRL-3276), 1.25 mM N-Acetyl-L-cysteine (Sigma-Aldrich, cat. A9165), 10 mM nicotinamide (Sigma-Aldrich, cat. N0636), 1X B-27 supplement (Thermo Fisher Scientific, cat. 17504044), 1X N-2 supplement (Thermo Fisher Scientific, cat. 17502048), 50 ng/mL human EGF (Thermo Fisher Scientific, cat. PHG0311), and 10 microM Y-27632 dihydrochloride (Tocris Bioscience, cat. 1254). The K12877-001-R-J1-PDC line was cultured in 6I media, which includes all 6C/Colon 1B media plus 10 ng/mL human FGF-10 (PeproTech, cat. 100-26), 1 ng/mL human FGF-2 (PeproTech, cat. 100-18B), 1 µM prostaglandin E2 (Tocris Bioscience, cat. 2296), […] hydrocortisone (Sigma-Aldrich, cat. H4001), and […] bovine insulin (Sigma-Aldrich, cat. I6634). The K86415-001-R-J1-PDC line was cultured in 6D media, which includes all 6C/Colon 1B media components minus the L-WRN conditioned media. The 485176-168-R4-J1-PDC was cultured in PANC media, which includes all 6C/Colon 1B media plus 100 ng/mL human FGF-10 (PeproTech, cat. 100-26), 500 nM SB-431542 (Selleckchem, cat. S1067), and 10 nM gastrin (Tocris Bioscience, cat. 3006). […]
# 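Note: spheroids exposed to agents for one week before readout.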
Compound,"viability, T/C (compound 0.00316 µM)","viability, T/C (compound 0.01 µM)","viability, T/C (compound 0.0316 µM)","viability, T/C (compound 0.1 µM)","viability, T/C (compound 0.316 µM)","viability, T/C (compound 1 µM)",IC50 (curve of compound),"viability, T/C (compound 0.000949 µM)","viability, T/C (compound 0.00949 µM)","viability, T/C (compound 0.03 µM)","viability, T/C (compound 0.0949 µM)","viability, T/C (compound 0.3 µM)","viability, T/C (compound 0.003 µM)","IC50 (compound alone, run of 08/26/2024)","IC50 (compound alone, run of 08/20/2024)","viability, T/C (compound 3.16 µM)","viability, T/C (compound 10 µM)"
CCN1CCN(Cc2ccc(Nc3ncc(F)c(-c4cc(F)c5nc(C)n(C(C)C)c5c4)n3)nc2)CC1,104% (2×) and 108% and 116%,96.5% [middle of 4 runs],100% [middle of 4 runs],103% [middle of 4 runs],123% [middle of 4 runs],96.6% [middle of 4 runs],> 1000 nM,,,,,,,,,,
CCc1c2c(nc3ccc(O)cc13)-c1cc3c(c(=O)n1C2)COC(=O)[C@]3(O)CC,,,,,,,5.02 nM [middle of 4 runs],99.2% [middle of 4 runs],14% [middle of 4 runs],5.09% [middle of 4 runs],3.24% [middle of 4 runs],1.19% [middle of 4 runs],,,,,
CCn1c(-c2cc(N3CCN(C)CC3)cnc2C(C)OC)c2c3cc(ccc31)-c1csc(n1)CC(NC(=O)C1CC1C)C(=O)N1CCCC(N1)C(=O)OCC(C)(C)C2 (stereo not given),,,,,,,,81.8% [middle of 8 runs],67.8% [middle of 8 runs],,107% [middle of 8 runs],97.1% [middle of 7 runs],72.1% [middle of 8 runs],> 300 nM,,,
CCn1c(-c2cccnc2C(C)OC)c2c3cc(ccc31)N1CCOC(CC(NC(=O)C(C(C)C)N(C)C(=O)C3(F)CCN(C(=O)C#CC(C)(C)N(C)C)CC3)C(=O)N3CCCC(N3)C(=O)OCC(C)(C)C2)C1 (stereo not given),,,,,,,,86.3% [middle of 8 runs],79.2% [middle of 8 runs],79% [middle of 8 runs],72.1% [middle of 8 runs],72.7% [middle of 8 runs],81.2% [middle of 8 runs],,> 300 nM,,
C[C@@H](NC(=O)c1ncnc(N)c1Cl)c1ncc(C(=O)Nc2cc(C(F)(F)F)c(Cl)cn2)s1,,,110% [middle of 4 runs],99.7% [middle of 4 runs],95% [middle of 4 runs],103% [middle of 4 runs],> 10000 nM,,,,,,,,,100% [middle of 4 runs],95.4% [middle of 4 runs]
Cc1nc(N2CCC3(CC2)COC(C)C3N)c(CO)nc1Sc1ccnc(N)c1Cl (stereo not given),,,,92.8% [middle of 4 runs],92.2% [middle of 4 runs],93.8% [middle of 4 runs],> 10000 nM,,,,,,,,,,79.5% [middle of 4 runs]
NC1c2ccccc2OC12CCN(c1cnc3c(N4CCCc5ncccc54)n[nH]c3n1)CC2 (stereo not given),,,100% [middle of 4 runs],97.9% [middle of 4 runs],,,> 10000 nM and 3820 nM,,,,,,,,,,51.5% [middle of 4 runs]
Nc1ccn(C2OC(CO)C(O)C2(F)F)c(=O)n1 (stereo not given),105% [middle of 4 runs],90.8% [middle of 4 runs],7.36% [middle of 4 runs],5.6% [middle of 4 runs],5.52% [middle of 4 runs],5.95% [middle of 4 runs],17.6 nM [middle of 4 runs],,,,,,,,,,
O=C(c1ccc(F)c(F)c1Nc1ccc(I)cc1F)N1CC(O)([C@@H]2CCCCN2)C1,109% [middle of 4 runs],93.5% [middle of 4 runs],94.9% [middle of 4 runs],81.3% [middle of 4 runs],81.6% [middle of 4 runs],,> 1000 nM and 496 nM,,,,,,,,,,
